In patent publication US10519177B2, “Heterocyclic compounds and uses thereof” (Plexxikon Inc., priority 2013, dated 2019) one finds IC50 data, which are given here for 27 compounds.

Assay [1] deals with BRD4-BD12 (1-477) (Homo sapiens (Human), UniProt O60885). The assay is described as follows: Alphascreen binding assay BRD4-BD12. The following applies: BRD4(1 2) H4; read-out: Biochemical activity (IC50 μM) BRD4(1 2) H4. The method, boiled down:
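First, compound was preincubated 1 h at room temperature with the His-tagged BRD4 protein (BD1 44-164 or tandem BD12 1-477) and acetylated H4 peptide. Next, donor and acceptor beads were added at 7.5 μg/ml final. After 30 min, AlphaScreen emission was recorded.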

Assay [2] concerns MV-4-11 cells. Kind of assay: Oncology cell growth assay MV-4-11 (CellTiter Glo). The following applies: Homo sapiens, MV4-11, 72 h; MV-4-11, 3d growth; read-out: Cell activity (IC50 μM) MV-4-11 3d-Growth. It is filed as cell-based. The procedure, abridged: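 MV-4-11 AML cells (MLL-AF4), 3000 per well, exposed to 8-point 1:3 compound titration from 10 μM top concentration (0.2% DMSO) for 72 h. Viability by CellTiter Glo luminescence, normalized to DMSO controls; pIC50 from four-parameter curve fit.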
(In general: ATP-based viability assays read luminescence as a measure of living cells.)

On to `CC[C@H](c1ccccn1)n1cc(I)c2ncc(-c3c(C)noc3C)cc21` [P-0956, 4-[3-iodo-1-[(1R)-1-(2-pyridyl)propyl]pyrrolo[3,2-b]pyridin-6-yl]-3,5-dimethyl-isoxazole], for which the IC50 in assay [1] and in assay [2] was less than 1 µM each time.
As for `COC(=O)c1ccc(-c2cn(Cc3cnc(C)s3)c3cc(-c4c(C)noc4C)cnc23)cc1` [P-0957, methyl 4-[6-(3,5-dimethylisoxazol-4-yl)-1-[(2-methylthiazol-5-yl)methyl]pyrrolo[3,2-b]pyridin-3-yl]benzoate], the IC50 in assay [1] and in assay [2] was less than 1 µM in each case.
With `Cc1ncc(Cn2cc(-c3ccc(C(=O)O)cc3)c3ncc(-c4c(C)noc4C)cc32)s1` [P-0958, 4-[6-(3,5-dimethylisoxazol-4-yl)-1-[(2-methylthiazol-5-yl)methyl]pyrrolo[3,2-b]pyridin-3-yl]benzoic acid], the IC50 in assay [1] and in assay [2] was less than 1 µM throughout.
Regarding `CC[C@H](c1ccccn1)n1cc(-c2ccc(C(=O)OC)cc2)c2ncc(-c3c(C)noc3C)cc21` [P-0959, methyl 4-[6-(3,5-dimethylisoxazol-4-yl)-1-[(1R)-1-(2-pyridyl)propyl]pyrrolo[3,2-b]pyridin-3-yl]benzoate], the IC50 in assay [1] and in assay [2] was less than 1 µM throughout.
Turning to `CC[C@H](c1ccccn1)n1cc(-c2ccc(C(=O)O)cc2)c2ncc(-c3c(C)noc3C)cc21` [P-0960, 4-[6-(3,5-dimethylisoxazol-4-yl)-1-[(1R)-1-(2-pyridyl)propyl]pyrrolo[3,2-b]pyridin-3-yl]benzoic acid], the IC50 in assay [1] and in assay [2] was less than 1 µM throughout.
Turning to `CC[C@H](c1ccccn1)n1cc(-c2ccc(CC(=O)OC)cc2)c2ncc(-c3c(C)noc3C)cc21` [P-0961, methyl 2-[4-[6-(3,5-dimethylisoxazol-4-yl)-1-[(1R)-1-(2-pyridyl)propyl]pyrrolo[3,2-b]pyridin-3-yl]phenyl]acetate], the IC50 in assay [1] and in assay [2] was less than 1 µM each time.
`CC[C@H](c1ccccn1)n1cc(-c2ccc(CC(=O)O)cc2)c2ncc(-c3c(C)noc3C)cc21` [P-0962, 2-[4-[6-(3,5-dimethylisoxazol-4-yl)-1-[(1R)-1-(2-pyridyl)propyl]pyrrolo[3,2-b]pyridin-3-yl]phenyl]acetic acid]: the half-maximal inhibitory concentration (IC50) in assay [1] and in assay [2] was less than 1 µM in each case.
Turning to `CC[C@@H](c1ccccn1)n1cc(I)c2ncc(-c3c(C)noc3C)cc21` [P-0963, 4-[3-iodo-1-[(1S)-1-(2-pyridyl)propyl]pyrrolo[3,2-b]pyridin-6-yl]-3,5-dimethyl-isoxazole], the IC50 in assay [1] and in assay [2] was less than 1 µM each time.
Regarding `Cc1noc(C)c1-c1cnc2c(-c3ccc(C4(C(=O)O)CC4)cc3)cn(Cc3ccccn3)c2c1` [P-0964, 1-[4-[6-(3,5-dimethylisoxazol-4-yl)-1-(2-pyridylmethyl)pyrrolo[3,2-b]pyridin-3-yl]phenyl]cyclopropanecarboxylic acid], the IC50 in assay [1] and in assay [2] was less than 1 µM each time.
With `COC(=O)Cc1ccc(-c2cn(Cc3ccccn3)c3cc(-c4c(C)noc4C)cnc23)cc1` [P-0965, methyl 2-[4-[6-(3,5-dimethylisoxazol-4-yl)-1-(2-pyridylmethyl)pyrrolo[3,2-b]pyridin-3-yl]phenyl]acetate], the IC50 in assay [1] and in assay [2] was less than 1 µM in each case.
In the case of `CC[C@@H](c1ccccn1)n1cc(-c2ccc(C(=O)OC)cc2)c2ncc(-c3c(C)noc3C)cc21` [P-0966, methyl 4-[6-(3,5-dimethylisoxazol-4-yl)-1-[(1S)-1-(2-pyridyl)propyl]pyrrolo[3,2-b]pyridin-3-yl]benzoate], the IC50 in assay [1] and in assay [2] was less than 1 µM in each case.
Consider `CC[C@@H](c1ccccn1)n1cc(-c2ccc(C(=O)O)cc2)c2ncc(-c3c(C)noc3C)cc21` [P-0967, 4-[6-(3,5-dimethylisoxazol-4-yl)-1-[(1S)-1-(2-pyridyl)propyl]pyrrolo[3,2-b]pyridin-3-yl]benzoic acid], for which the IC50 in assay [1] and in assay [2] was less than 1 µM each time.
For the compound `CC[C@@H](c1ccccn1)n1cc(-c2ccc(C3(C(=O)OC)CC3)cc2)c2ncc(-c3c(C)noc3C)cc21` [P-0968, methyl 1-[4-[6-(3,5-dimethylisoxazol-4-yl)-1-[(1S)-1-(2-pyridyl)propyl]pyrrolo[3,2-b]pyridin-3-yl]phenyl]cyclopropanecarboxylate], the IC50 in assay [1] and in assay [2] was less than 1 µM in each case.
Take `CC[C@@H](c1ccccn1)n1cc(-c2ccc(C3(C(=O)O)CC3)cc2)c2ncc(-c3c(C)noc3C)cc21` [P-0969, 1-[4-[6-(3,5-dimethylisoxazol-4-yl)-1-[(1S)-1-(2-pyridyl)propyl]pyrrolo[3,2-b]pyridin-3-yl]phenyl]cyclopropanecarboxylic acid]: the IC50 in assay [1] and in assay [2] was less than 1 µM throughout.
Consider `CC[C@@H](c1ccccn1)n1cc(-c2ccc(C#N)cc2)c2ncc(-c3c(C)noc3C)cc21` [P-0970, 4-[6-(3,5-dimethylisoxazol-4-yl)-1-[(1S)-1-(2-pyridyl)propyl]pyrrolo[3,2-b]pyridin-3-yl]benzonitrile], for which the IC50 in assay [1] and in assay [2] was less than 1 µM throughout.
For `Cc1noc(C)c1-c1cnc2c(-c3cnn(CC(F)(F)F)c3)cn(CC3(C)CCOCC3)c2c1` [P-0971, 3,5-dimethyl-4-[1-[(4-methyltetrahydropyran-4-yl)methyl]-3-[1-(2,2,2-trifluoroethyl)pyrazol-4-yl]pyrrolo[3,2-b]pyridin-6-yl]isoxazole], the IC50 in assay [1] and in assay [2] was less than 1 µM each time.
On to `Cc1ccc(-c2cn(CC3(C)CCOCC3)c3cc(-c4c(C)noc4C)cnc23)cn1` [P-0972, 3,5-dimethyl-4-[3-(6-methyl-3-pyridyl)-1-[(4-methyltetrahydropyran-4-yl)methyl]pyrrolo[3,2-b]pyridin-6-yl]isoxazole], for which the IC50 in assay [1] and in assay [2] was less than 1 µM each time.
On to `Cc1noc(C)c1-c1cnc2c(-c3ccc(CC(=O)O)cc3)cn(Cc3ccccn3)c2c1` [P-0973, 2-[4-[6-(3,5-dimethylisoxazol-4-yl)-1-(2-pyridylmethyl)pyrrolo[3,2-b]pyridin-3-yl]phenyl]acetic acid], for which the concentration for half-maximal inhibition (IC50) in assay [1] and in assay [2] was less than 1 µM throughout.
On to `COc1ccc(-c2cn([C@@H](C)c3ccccn3)c3cc(-c4c(C)noc4C)cnc23)cn1` [P-0975, 4-[3-(6-methoxy-3-pyridyl)-1-[(1S)-1-(2-pyridyl)ethyl]pyrrolo[3,2-b]pyridin-6-yl]-3,5-dimethyl-isoxazole], for which the IC50 in assay [1] and in assay [2] was less than 1 µM throughout.
With `CNC(=O)c1ccc(-c2cn([C@@H](C)c3ccccn3)c3cc(-c4c(C)noc4C)cnc23)cc1` [P-0977, 4-[6-(3,5-dimethylisoxazol-4-yl)-1-[(1S)-1-(2-pyridyl)ethyl]pyrrolo[3,2-b]pyridin-3-yl]-N-methyl-benzamide], the IC50 in assay [1] and in assay [2] was less than 1 µM throughout.
For the compound `CNC(=O)c1ccc(-c2cn([C@@H](C)c3ccccn3)c3cc(-c4c(C)noc4C)cnc23)cn1` [P-0978, 5-[6-(3,5-dimethylisoxazol-4-yl)-1-[(1S)-1-(2-pyridyl)ethyl]pyrrolo[3,2-b]pyridin-3-yl]-N-methyl-pyridine-2-carboxamide], the IC50 in assay [1] and in assay [2] was less than 1 µM in each case.
Turning to `Cc1noc(C)c1-c1cnc2c(-c3ccc(NS(C)(=O)=O)cc3)cn([C@@H](C)c3ccccn3)c2c1` [P-0979, N-[4-[6-(3,5-dimethylisoxazol-4-yl)-1-[(1S)-1-(2-pyridyl)ethyl]pyrrolo[3,2-b]pyridin-3-yl]phenyl]methanesulfonamide], the IC50 in assay [1] and in assay [2] was less than 1 µM throughout.
Take `CNS(=O)(=O)c1cccc(-c2cn([C@@H](C)c3ccccn3)c3cc(-c4c(C)noc4C)cnc23)c1` [P-0980, 3-[6-(3,5-dimethylisoxazol-4-yl)-1-[(1S)-1-(2-pyridyl)ethyl]pyrrolo[3,2-b]pyridin-3-yl]-N-methyl-benzenesulfonamide]: the IC50 in assay [1] and in assay [2] was less than 1 µM in each case.
For the compound `Cc1noc(C)c1-c1cnc2c(-c3cccc(NS(C)(=O)=O)c3)cn([C@@H](C)c3ccccn3)c2c1` [P-0981, N-[3-[6-(3,5-dimethylisoxazol-4-yl)-1-[(1S)-1-(2-pyridyl)ethyl]pyrrolo[3,2-b]pyridin-3-yl]phenyl]methanesulfonamide], the IC50 in assay [1] and in assay [2] was less than 1 µM throughout.
As for `CC(=O)Nc1ccc(-c2cn([C@@H](C)c3ccccn3)c3cc(-c4c(C)noc4C)cnc23)cc1` [P-0984, N-[4-[6-(3,5-dimethylisoxazol-4-yl)-1-[(1S)-1-(2-pyridyl)ethyl]pyrrolo[3,2-b]pyridin-3-yl]phenyl]acetamide], the IC50 in assay [1] and in assay [2] was less than 1 µM each time.
For the compound `Cc1noc(C)c1-c1cnc2c(I)cn([C@@H](c3ccccn3)C3CC3)c2c1` [P-0985, 4-[1-[(R)-cyclopropyl(2-pyridyl)methyl]-3-iodo-pyrrolo[3,2-b]pyridin-6-yl]-3,5-dimethyl-isoxazole], the IC50 in assay [1] and in assay [2] was less than 1 µM each time.
As for `CC[C@@H](c1ccccn1)n1cc(-c2ccc(CC(=O)O)cc2)c2ncc(-c3c(C)noc3C)cc21` [P-0986, 2-[4-[6-(3,5-dimethylisoxazol-4-yl)-1-[(1S)-1-(2-pyridyl)propyl]pyrrolo[3,2-b]pyridin-3-yl]phenyl]acetic acid], the IC50 in assay [1] and in assay [2] was less than 1 µM each time.

As usually defined, the IC50 is the concentration at which inhibition is half-maximal.
